Experimental data reported in US20250152660A1, “SCO-spondin-derived polypeptides for treating biological barriers dysfunction” (AXOLTIS PHARMA, priority 2021, published 2025).
“And” between values parts separate entries of the source, which are not always exact repeats. Equal values may be shown once. Bridges are numbered along the chain shown (N, C = ends). Where no end group is shown, it is not given here.

How the values were obtained:
[1] = system: Claudin-5 at tight junction of mouse brain endothelial bEnd.3 cells; test: Claudin-5 immunocytochemistry at tight junction in mouse brain endothelial cell cultures; type: cell-based
Description: To understand the effect of NX218 on the TEER and permeability of mouse brain endothelial cells in examples 3 and 4, the levels of the tight junction protein Claudin-5 were assessed using immunocytochemistry.
Mouse brain endothelial cells (bEnd.3, American Type Culture Collection) were cultured in DMEM supplemented with 10% fetal FBS and 2 mM sodium pyruvate in a 5% CO2 incubator at 37° C.
bEnd.3 cells were seeded on 1% fibronectin-coated Nunc Lab-Tek II Chamber Slides in culture medium (1×10^5 cells per well in 300 μL). Two days after seeding, cells were treated with vehicle or NX218 (1, 10 and 100 μM) for 1, 2 or 3 days. Cells were then fixed for 10 min at room temperature (RT) with 4% paraformaldehyde in phosphate buffered saline (PBS), washed twice with PBS and incubated with 5% normal goat serum and 0.05% Triton X-100 in PBS for 1 h at RT before overnight incubation with polyclonal rabbit anti-claudin-5 ( 1/100; 34-1600, Invitrogen) at 4° C. Cells were then washed three times with PBS and incubated with goat anti-rabbit Cy3 secondary antibody ( 1/500; ab6939, Abcam) for 2 h at RT and counterstained with Hoechst 33258 to visualize nuclei. The slide was removed from the chamber and mounted with Aqua Poly/Mount before visualization by confocal laser scanning/microscopy. Claudin-5 immunoreactivity (intensity) at membrane localization was finally quantified to evaluate Claudin-5 protein levels. The data are expressed as a percentage of the control condition.
A second independent experiment using the protocol described at example 5 was performed. Pooling the data from the 2 experiments (the first experiment was done in triplicate, the 2nd in duplicate, n=5) improves the statistical power and allow to reach statistical significance for a tendency observed at 72 hours timepoint.

[2] = system: mouse brain endothelial bEnd.3 cells; test: Permeability of mouse brain endothelial cell monolayer to FITC-40 kDa Dextran; type: cell-based; conditions: for Permeability to FITC-40 kDa Dextran (endothelial permeability coefficient Pe): individual replicates N1-N3
Description: To determine the effect of NX218 on the permeability of mouse brain endothelial cells to a 40-kDa FITC Dextran, cells were grown on a semi-permeable membrane inserted in culture wells in presence or absence of NX218. Then, the FITC Dextran was placed on the apical chamber (containing the cells) and its levels measured (based on its fluorescence) one hour later in the basolateral chamber.
Mouse brain endothelial cells (bEnd.3, American Type Culture Collection) were cultured in DMEM supplemented with 10% FBS and 2 mM sodium pyruvate in a 5% CO2 incubator at 37° C.
bEnd.3 cells were grown to confluence on 1% fibronectin-coated Corning HTS 24-well Transwell polyester inserts with a pore size of 0.4 μm (5×10^4 cells per well containing 200 μL and 800 μL of culture medium in the apical and basolateral compartments respectively) and treated with vehicle or NX218 (1, 10 and 100 μM) for 1, 2 or 3 days. Two hundred (200) μL of 1 mg/mL of a 40-kDa FITC Dextran in DMEM supplemented with 10% FBS and 2 mM sodium pyruvate were added to the apical chamber of each well, and the cells were incubated at 37° C. Sampling aliquots were taken from the basolateral chamber and replaced with fresh medium every 15 min for 1 h and then transferred to 96-well plates. FITC-Dextran fluorescence was determined using a spectrofluorometer at an excitation wavelength of 485 nm and an emission wavelength of 520 nm. Relative fluorescence units were converted to values of nanograms per milliliter, using FITC-Dextran standard curves, and was corrected for background fluorescence and serial dilutions over the course of the experiment. The data are expressed as the endothelial permeability coefficient (Pe) in cm/min.

For “W-S-G-W-S-S-C-S-R-S-C-G (WSGWSSCSRSCG; disulfide 7-11 (inferred)) [NX218]”, the “Claudin-5 levels, result in words” value ([1]; 24 hours, NX218 at 10 and 100 μM) was “significant increase in Claudin-5 levels”, the “Expression of Claudin-5 at tight junction” value ([1]; FIG. 3, 24-hour treatment) was “increases the expression of Claudin-5 at tight junction” and the “Expression of Claudin-5 at tight junction” value ([1]; FIG. 5, 72-hour treatment) was “increases the expression of Claudin-5 at tight junction”. The “Expression of Claudin-5 at tight junction, Average” value (from here on “Expression … Average”) ([1]; NX218 1 μM, 24 hours, bEnd.3, average of N1-N6) was 112.5 % of Control, the “Expression of Claudin-5 at tight junction” value ([1]; NX218 1 μM, 24 hours, bEnd.3, individual replicates N1-N6) was 108.1 % of Control and 99.96 % of Control and 119.3 % of Control and 99.61 % of Control and 140.4 % of Control and 107.5 % of Control and the “Expression … Average” value ([1]; NX218 1 μM, 48 hours, bEnd.3, average of N1-N6) was 80.63 % of Control. For the same substance, the “Expression of Claudin-5 at tight junction” value ([1]; NX218 1 μM, 48 hours, bEnd.3, individual replicates N1-N6) was 76.07 % of Control and 52.45 % of Control and 76.37 % of Control and 93.88 % of Control and 102.1 % of Control and 82.89 % of Control, the “Expression … Average” value ([1]; NX218 1 μM, 72 hours, bEnd.3, first experiment (Table 9), average of N1-N4) was 81.69 % of Control and the “Expression of Claudin-5 at tight junction” value ([1]; NX218 1 μM, 72 hours, bEnd.3, first experiment (Table 9), individual replicates N1-N4) was 77.15 % of Control and 90.23 % of Control and 103.8 % of Control and 55.53 % of Control. For the same substance, the “Expression … Average” value ([1]; NX218 1 μM, 72 hours, bEnd.3, pooled data of 2 experiments (Table 12), average of N1-N7) was 96.00 % of Control, the “Expression of Claudin-5 at tight junction” value ([1]; NX218 1 μM, 72 hours, bEnd.3, pooled data of 2 experiments (Table 12), individual replicates N1-N7) was 86.80 % of Control and 107.60 % of Control and 99.90 % of Control and 104.20 % of Control and 92.70 % of Control and 103.50 % of Control and 77.10 % of Control and the “Expression … Average” value ([1]; NX218 10 μM, 24 hours, bEnd.3, average of N1-N6) was 151.7 % of Control. For the same substance, the “Expression of Claudin-5 at tight junction” value ([1]; NX218 10 μM, 24 hours, bEnd.3, individual replicates N1-N6) was 126.9 % of Control and 154.4 % of Control and 137 % of Control and 121.3 % of Control and 169.4 % of Control and 200.9 % of Control, the “Expression … Average” value ([1]; NX218 10 μM, 48 hours, bEnd.3, average of N1-N6) was 97.8 % of Control and the “Expression of Claudin-5 at tight junction” value ([1]; NX218 10 μM, 48 hours, bEnd.3, individual replicates N1-N6) was 66.36 % of Control and 83.18 % of Control and 120.8 % of Control and 145.7 % of Control and 97.51 % of Control and 73.25 % of Control. The “Expression … Average” value ([1]; NX218 10 μM, 72 hours, bEnd.3, first experiment (Table 9), average of N1-N4) was 70.23 % of Control, the “Expression of Claudin-5 at tight junction” value ([1]; NX218 10 μM, 72 hours, bEnd.3, first experiment (Table 9), individual replicates N1-N4) was 56.03 % of Control and 94.63 % of Control and 58.42 % of Control and 71.86 % of Control and the “Expression … Average” value ([1]; NX218 10 μM, 72 hours, bEnd.3, pooled data of 2 experiments (Table 12), average of N1-N7) was 97.80 % of Control. The “Expression of Claudin-5 at tight junction” value ([1]; NX218 10 μM, 72 hours, bEnd.3, pooled data of 2 experiments (Table 12), individual replicates N1-N7) was 71.70 % of Control and 116.80 % of Control and 122.30 % of Control and 113.50 % of Control and 97.80 % of Control and 75.30 % of Control and 87.00 % of Control, the “Expression … Average” value ([1]; NX218 100 μM, 24 hours, bEnd.3, average of N1-N6) was 180.5 % of Control and the “Expression of Claudin-5 at tight junction” value ([1]; NX218 100 μM, 24 hours, bEnd.3, individual replicates N1-N6) was 173.3 % of Control and 212.5 % of Control and 249.5 % of Control and 129 % of Control and 161.7 % of Control and 157.1 % of Control. For the same substance, the “Expression … Average” value ([1]; NX218 100 μM, 48 hours, bEnd.3, average of N1-N6) was 98.79 % of Control, the “Expression of Claudin-5 at tight junction” value ([1]; NX218 100 μM, 48 hours, bEnd.3, individual replicates N1-N6) was 88.39 % of Control and 55.18 % of Control and 80.87 % of Control and 122.7 % of Control and 115.5 % of Control and 130.1 % of Control and the “Expression … Average” value ([1]; NX218 100 μM, 72 hours, bEnd.3, first experiment (Table 9), average of N1-N4) was 106.6 % of Control. The “Expression of Claudin-5 at tight junction” value ([1]; NX218 100 μM, 72 hours, bEnd.3, first experiment (Table 9), individual replicates N1-N4) was 121.8 % of Control and 116 % of Control and 81.03 % of Control and 107.7 % of Control, the “Expression … Average” value ([1]; NX218 100 μM, 72 hours, bEnd.3, pooled data of 2 experiments (Table 12), average of N1-N7) was 119.10 % of Control and the “Expression of Claudin-5 at tight junction” value ([1]; NX218 100 μM, 72 hours, bEnd.3, pooled data of 2 experiments (Table 12), individual replicates N1-N7) was 134.20 % of Control and 124.40 % of Control and 109.30 % of Control and 120.30 % of Control and 130.70 % of Control and 105.10 % of Control and 109.40 % of Control. The “Claudin-5 levels, result in words” value ([1]; NX218 at 100 μM, pooled experiments, 72 hours) was “Increases of Claudin-5 levels were maintained for at-least 72 hours”, the “Claudin-5 levels, result in words” value ([1]; after 2 or 3 days treatment (Tables 8, 9)) was “levels were similar between control and NX218 conditions” and the “Permeability to FITC-40 kDa Dextran (Pe), Average” value (from here on “Permeability … Average”) ([2]; NX218 1 μM, 24 hours, average of N1-N3, control 0.066) was 1064 ×10⁻⁶ cm/s. The “Permeability to FITC-40 kDa Dextran (endothelial permeability coefficient Pe)” value ([2]; NX218 1 μM, 24 hours) was 1020 ×10⁻⁶ cm/s and 971 ×10⁻⁶ cm/s and 1200 ×10⁻⁶ cm/s, the “Permeability … Average” value ([2]; NX218 1 μM, 48 hours, average of N1-N3, control 0.05616) was 896.3 ×10⁻⁶ cm/s and the “Permeability to FITC-40 kDa Dextran (endothelial permeability coefficient Pe)” value ([2]; NX218 1 μM, 48 hours) was 963 ×10⁻⁶ cm/s and 781.5 ×10⁻⁶ cm/s and 944.3 ×10⁻⁶ cm/s. The “Permeability … Average” value ([2]; NX218 1 μM, 72 hours, average of N1-N3, control 0.0532667) was 906.3 ×10⁻⁶ cm/s, the “Permeability to FITC-40 kDa Dextran (endothelial permeability coefficient Pe)” value ([2]; NX218 1 μM, 72 hours) was 942 ×10⁻⁶ cm/s and 942.2 ×10⁻⁶ cm/s and 834.8 ×10⁻⁶ cm/s and the “Permeability … Average” value ([2]; NX218 10 μM, 24 hours, average of N1-N3, control 0.066) was 977.3 ×10⁻⁶ cm/s. The “Permeability to FITC-40 kDa Dextran (endothelial permeability coefficient Pe)” value ([2]; NX218 10 μM, 24 hours) was 892 ×10⁻⁶ cm/s and 1030 ×10⁻⁶ cm/s and 1010 ×10⁻⁶ cm/s, the “Permeability … Average” value ([2]; NX218 10 μM, 48 hours, average of N1-N3, control 0.05616) was 841.3 ×10⁻⁶ cm/s and the “Permeability to FITC-40 kDa Dextran (endothelial permeability coefficient Pe)” value ([2]; NX218 10 μM, 48 hours) was 909 ×10⁻⁶ cm/s and 760 ×10⁻⁶ cm/s and 855 ×10⁻⁶ cm/s. For the same substance, the “Permeability … Average” value ([2]; NX218 10 μM, 72 hours, average of N1-N3, control 0.0532667) was 747.7 ×10⁻⁶ cm/s, the “Permeability to FITC-40 kDa Dextran (endothelial permeability coefficient Pe)” value ([2]; NX218 10 μM, 72 hours) was 748.2 ×10⁻⁶ cm/s and 783 ×10⁻⁶ cm/s and 712 ×10⁻⁶ cm/s and the “Permeability … Average” value ([2]; NX218 100 μM, 24 hours, average of N1-N3, control 0.066) was 942 ×10⁻⁶ cm/s. The “Permeability to FITC-40 kDa Dextran (endothelial permeability coefficient Pe)” value ([2]; NX218 100 μM, 24 hours) was 907 ×10⁻⁶ cm/s and 1012 ×10⁻⁶ cm/s and 906.3 ×10⁻⁶ cm/s, the “Permeability … Average” value ([2]; NX218 100 μM, 48 hours, average of N1-N3, control 0.05616) was 702 ×10⁻⁶ cm/s and the “Permeability to FITC-40 kDa Dextran (endothelial permeability coefficient Pe)” value ([2]; NX218 100 μM, 48 hours) was 627 ×10⁻⁶ cm/s and 725 ×10⁻⁶ cm/s and 753 ×10⁻⁶ cm/s. For the same substance, the “Permeability … Average” value ([2]; NX218 100 μM, 72 hours, average of N1-N3, control 0.0532667) was 782 ×10⁻⁶ cm/s and the “Permeability to FITC-40 kDa Dextran (endothelial permeability coefficient Pe)” value ([2]; NX218 100 μM, 72 hours) was 798 ×10⁻⁶ cm/s and 758.7 ×10⁻⁶ cm/s and 787.7 ×10⁻⁶ cm/s.
